Experimental data reported in patent US20250120986A1, “STEROL THERAPY” (UCL BUSINESS LTD, priority 2021, published 2025).

Tests used:
[1] = test system: sham-operated rats and septic rats; experiment: Catecholamine responsiveness study (dobutamine / noradrenaline challenge) in rat faecal peritonitis model; assay type: in vivo; details: 10 minutes after commencement of infusion
Experimental: II. Sepsis was induced in awake, instrumented male Wistar rats (316±23.5 g) as described above but using 7 microL of faecal slurry/g body weight. Rats were allocated into sham-operated (control), sepsis and sepsis+cholesterol groups.
At 6 h post-induction of sepsis, the sepsis+cholesterol group received an i.v. infusion of a cholesterol-loaded formulation, either liposomal- or bovine HDL (10 mg cholesterol/300 g bw), which was continued over 15 hours.
At 21 h, catecholamine responsiveness was tested by consecutively administering, under isoflurane anaesthesia, the beta-adrenergic agonist, dobutamine (10 μg/kg/min for 10 min) and then the predominant alpha-adrenergic agonist, norepinephrine (0.5 μg/kg/min for 10 min) with a 30 min washout period in between.
Blood pressure (measured continuously from an indwelling carotid line), heart rate and stroke volume (measured by echocardiography) were measured before and at 10 minutes after each drug was infused.

H9C2 cell line = experiment: Western blot of ERK2 phosphorylation after adrenaline treatment (adrenergic signalling); assay type: cell-based, rat; details: for ERK2 phosphorylation after adrenaline treatment: H9C2 depleted with MßCD, then incubated with sterol
Experimental: (§1) Cells were incubated in 5 mM solution MßCD in DMEM for 30 minutes. Before treatment cells were washed twice with prewarmed PBS to remove remaining FBS and prevent contamination of exogenous cholesterol.
After MßCD treatment cells were washed twice with prewarmed PBS to remove remaining MßCD solution and then incubated for 4 hours with either (i) complex Cholesterol—MßCD or (ii) Sitosterol—MßCD. These were prepared according to the protocol reported by Klein et al. (Biochemistry 1995; 34:13784). Sterol complexes were diluted ×100 in DMEM to produce final concentrations of 68 microM cholesterol, 68 microM sitosterol and 700 microM MßCD.
Control, MßCD or MßCD/sterol-treated cells were incubated for 10 minutes with adrenaline or noradrenaline solution in DMEM (final concentration 10^−7M).
Cells were washed and lysed on plates with RIPA buffer supplemented by protease and phosphatase inhibitors on ice for 30 minutes. Lysates were treated as described above for sterol determination. Protein concentration was determined by BCA assay. Western blot samples were prepared by mixing the lysates with 5× loading buffer (Tris HCl pH 6.8 312.5 mM, SDS 10%, bME 12.5%, glycerol 47.5%, bromophenol blue 0.01%). 2 mcg of protein/sample was separated by electrophoresis on 10% SDS-PAGE and transferred to a PVDF membrane. Membrane was blocked with 5% BSA in TBST for 1 hour at room temperature with gentle agitation and incubated with primary anti-pERK or anti-PFK antibodies overnight at 4° C. Both primary antibodies were diluted 2000 times in 5% BSA in TBST. […]
Chemiluminescent detection was performed using the Clarity TM Western ECL Substrate (Bio-Rad). Band intensity was analysed by Image Studio Lite ver5.2. Results are calculated as a ratio of intensities of pERK2 band to PFK band for each sample and normalized as a percentage from the average of samples treated with adrenaline only.

H9C2 cardiomyocyte cells = experiment: Sterol concentration in H9C2 cells after MßCD depletion (Amplex Red / BCA); assay type: cell-based, rat; details: sterol-MßCD complex, 68 microM sterol, 4 hours
Experimental: Rat embryonic cardiomyocyte H9C2 cells were cultured in high-glucose DMEM (Gibco 41965-039) supplemented with 10% fetal bovine serum (FBS, Gibco 10270-106) and 100 U/ml of penicillin/streptomycin at 37° C. in a humidified atmosphere of 5% CO2. Cells were split every 2-3 days.
Two days prior to experimentation, cells were seeded in 6 well plates (Corning N-3516) 3×10^5 cells/well. Before any treatment. cells were washed twice with prewarmed PBS.
as §1
After MßCD treatment cells were washed twice with prewarmed PBS to remove remaining MßCD solution and then incubated for 4 hours with either (i) complex Cholesterol—MßCD or (ii) Sitosterol—MßCD. These were prepared according to the protocol reported by Klein et al. (Biochemistry 1995; 34:13784). […]
After incubation MßCD-treated, MßCD/Sterol treated, and untreated (control) cells were washed twice with ice-cold PBS and lysed with phosphate buffer (0.1 M potassium phosphate pH 7.4, 50 mM NaCl, 5 mM cholic acid, 0.1% Triton X-100, protease inhibitors) on ice. […] Protein and sterol concentrations were measured by BCA and Cholesterol Amplex Red assays, respectively. […]

H9C2 cardiomyocytes = experiment: ERK1 and ERK2 phosphorylation after dobutamine treatment (adrenergic signalling); assay type: cell-based, rat; details: H9C2 treated with MßCD alone
Experimental: Adrenergic signalling was evaluated in the H9C2 cardiomyocytes by the increase of ERK1 and ERK2 phosphorylation after dobutamine treatment.

[2] = septic rats, 21 h post-faecal peritonitis

## NC[C@H](O)c1ccc(O)c(O)c1 [noradrenaline]
[1]; [2]
  blood pressure response to the agonist: non-responsive
[1]; sham animals
  blood pressure response to the agonist: significant rises

## CC(CCc1ccc(O)cc1)NCCc1ccc(O)c(O)c1 (stereo not shown) [dobutamine]
[1]; [2]
  stroke volume response to the agonist: non-responsive
[1]; sham animals
  stroke volume response to the agonist: significant rises

## CC[C@H](CC[C@@H](C)[C@H]1CC[C@H]2[C@@H]3CC=C4C[C@@H](O)CC[C@]4(C)[C@H]3CC[C@]12C)C(C)C [sitosterol, Sitosterol]
H9C2 cell line
  ERK2 phosphorylation after adrenaline treatment: 2 × normal
H9C2 cardiomyocyte cells
  cellular sterol content after MßCD depletion: Sterol content was restored

## Methyl-β-cyclodextrin [MßCD]
H9C2 cell line; H9C2, 5 mM MßCD for 30 minutes
  ERK2 phosphorylation after adrenaline treatment (in words): decreased ERK2 phosphorylation
H9C2 cardiomyocytes
  phosphorylation of ERK1 and ERK2 after dobutamine treatment: decreased phosphorylation of both ERK1 and ERK2

## CC(C)CCC[C@@H](C)[C@H]1CC[C@H]2[C@@H]3CC=C4C[C@@H](O)CC[C@]4(C)[C@H]3CC[C@]12C [cholesterol, Cholesterol]
H9C2 cell line
  ERK2 phosphorylation after adrenaline treatment: 2 × normal
H9C2 cardiomyocyte cells
  cellular sterol content after MßCD depletion: Sterol content was restored
